US20140155406A1, “4-IMIDAZOPYRIDAZIN-1-YL-BENZAMIDES AND 4-IMIDAZOTRIAZIN-1-YL-BENZAMIDES BTK INHIBITORS” (priority 2011, published 2014)

What was measured:
Assay type in all cases: biochemical
Lck enzyme = target: T1, Lck enzyme (Homo sapiens, UniProt P06239); assay: Lck enzyme activity, IMAP fluorescence polarization assay; conditions: 60 min pre-incubation, 6 μM ATP (Km)
T1 construct: purchased Millipore 14-442

Src enzyme = target: T2, Src enzyme (Homo sapiens, UniProt P12931); assay: Src enzyme activity, IMAP fluorescence polarization assay; conditions: 60 min pre-incubation, 4 μM ATP (Km)
T2 construct: purchased Millipore 14-326
T2 sequence (P12931 whole entry): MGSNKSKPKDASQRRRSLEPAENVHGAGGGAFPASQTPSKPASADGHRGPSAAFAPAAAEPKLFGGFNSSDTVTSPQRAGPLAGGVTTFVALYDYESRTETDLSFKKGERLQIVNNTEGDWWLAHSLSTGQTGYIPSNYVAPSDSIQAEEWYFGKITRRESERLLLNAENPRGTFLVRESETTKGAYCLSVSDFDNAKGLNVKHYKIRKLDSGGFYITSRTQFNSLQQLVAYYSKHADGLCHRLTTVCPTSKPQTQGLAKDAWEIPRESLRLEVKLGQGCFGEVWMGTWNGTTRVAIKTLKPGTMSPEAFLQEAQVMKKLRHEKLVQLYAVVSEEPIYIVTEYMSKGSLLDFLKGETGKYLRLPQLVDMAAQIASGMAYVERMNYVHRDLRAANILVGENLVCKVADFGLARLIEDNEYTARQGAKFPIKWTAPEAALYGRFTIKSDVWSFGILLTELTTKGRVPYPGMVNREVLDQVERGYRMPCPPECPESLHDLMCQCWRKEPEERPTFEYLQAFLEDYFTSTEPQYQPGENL
Summary of the method: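 Src at 0.2 U/mL final, pre-incubated 60 min at RT with compound (10 μM to 0.316 nM final, 1% DMSO) in pH 7.2 Tris/Mg/Mn buffer. Reaction with 100 nM fluorescein-p34cdc2 peptide and 4 μM ATP (Km) ran 2 h at RT, then IMAP binding and FP at 535 nm. EC50 from curve fit of % control.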

FynT enzyme = target: T3, FynT enzyme (Homo sapiens, UniProt P06241); assay: FynT enzyme activity, IMAP fluorescence polarization assay; conditions: 60 min pre-incubation, 0.2 μM ATP (Km)
T3 construct: purchased Biomol SE-287
T3 sequence (P06241 1-534 isoform P06241-2): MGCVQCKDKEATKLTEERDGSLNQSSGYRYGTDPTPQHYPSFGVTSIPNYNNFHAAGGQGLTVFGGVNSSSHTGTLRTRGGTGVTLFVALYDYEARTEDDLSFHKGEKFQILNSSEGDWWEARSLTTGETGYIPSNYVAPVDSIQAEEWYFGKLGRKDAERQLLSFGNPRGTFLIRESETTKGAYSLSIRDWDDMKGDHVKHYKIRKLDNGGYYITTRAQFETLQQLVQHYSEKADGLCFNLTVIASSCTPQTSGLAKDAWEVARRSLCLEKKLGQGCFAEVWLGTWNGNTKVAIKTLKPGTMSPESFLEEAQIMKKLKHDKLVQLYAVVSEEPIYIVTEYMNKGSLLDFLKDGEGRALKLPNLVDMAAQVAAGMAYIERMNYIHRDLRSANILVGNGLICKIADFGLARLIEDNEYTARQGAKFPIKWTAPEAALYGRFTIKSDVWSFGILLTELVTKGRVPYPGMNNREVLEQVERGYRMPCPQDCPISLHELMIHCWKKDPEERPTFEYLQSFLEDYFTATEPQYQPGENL
Summary of the method: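 FynT (125 ng/mL final) pre-incubated 60 min at RT with compound (10 μM–0.316 nM, 1% DMSO) in pH 7.2 Tris/Mg/Mn buffer, then 100 nM fluorescein p34cdc2 peptide and 0.2 μM ATP (Km) for 2 h at RT. IMAP binding FP read at 535 nm; EC50 from curve fit versus ±ATP controls.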

Measured: EC50

T1 sequence (P06239 whole entry): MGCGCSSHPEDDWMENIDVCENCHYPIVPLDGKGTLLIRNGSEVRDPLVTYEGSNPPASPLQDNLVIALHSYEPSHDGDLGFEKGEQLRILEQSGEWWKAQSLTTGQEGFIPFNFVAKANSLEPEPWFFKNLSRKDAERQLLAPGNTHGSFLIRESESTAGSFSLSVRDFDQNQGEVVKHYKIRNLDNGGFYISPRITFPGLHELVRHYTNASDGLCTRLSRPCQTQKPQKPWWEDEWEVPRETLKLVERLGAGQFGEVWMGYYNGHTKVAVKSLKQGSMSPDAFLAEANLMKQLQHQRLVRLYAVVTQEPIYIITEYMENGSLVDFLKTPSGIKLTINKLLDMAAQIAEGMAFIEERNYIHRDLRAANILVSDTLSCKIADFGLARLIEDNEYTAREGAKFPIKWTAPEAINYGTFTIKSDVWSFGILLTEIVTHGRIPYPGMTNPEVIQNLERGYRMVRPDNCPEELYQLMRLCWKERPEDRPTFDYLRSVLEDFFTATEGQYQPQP

CC#CC(=O)N1CCCC[C@H]1c1nc(-c2ccc(C(=O)Nc3cc(CCC)ccn3)cc2)c2c(C)nccn12 [Example 22, (S)-4-(3-(1-but-2-ynoylpiperidin-2-yl)-8-methylimidazo[1,5-a]pyrazin-1-yl)-N-(4-propylpyridin-2-yl)benzamide]
≥ 1000 nM: all assays above

C=CC(=O)N[C@@H](C)c1nc(-c2ccc(C(=O)Nc3cc(CCC)ccn3)cc2)c2c(C)nccn12 [Example 23, (S)-4-(3-(1-acrylamidoethyl)-8-methylimidazo[1,5-a]pyrazin-1-yl)-N-(4-propylpyridin-2-yl)benzamide]
≥ 1000 nM: all assays above

CC#CC(=O)N(C)[C@@H](C)c1nc(-c2ccc(C(=O)Nc3cc(CCC)ccn3)cc2)c2c(C)nccn12 [Example 24, (S)-4-(8-methyl-3-(1-(N-methylbut-2-ynamido)ethyl)imidazo[1,5-a]pyrazin-1-yl)-N-(4-propylpyridin-2-yl)benzamide]
≥ 1000 nM: all assays above

Cc1nccn2c([C@@H]3CCCN3C(=O)/C=C/CN3CCCC3)nc(-c3ccc(C(=O)Nc4ccccn4)cc3)c12 [Example 25, (S,E)-4-(8-methyl-3-(1-(4-(pyrrolidin-1-yl)but-2-enoyl)pyrrolidin-2-yl)imidazo[1,5-a]pyrazin-1-yl)-N-(pyridin-2-yl)benzamide]
≥ 1000 nM: all assays above

C=CC(=O)N1CCCC[C@H]1c1nc(-c2ccc(C(=O)Nc3cc(C(F)(F)F)ccn3)cc2)c2c(C)nccn12 [Example 27, (S)-4-(3-(1-acryloylpiperidin-2-yl)-8-methylimidazo[1,5-a]pyrazin-1-yl)-N-(4-(trifluoromethyl)pyridin-2-yl)benzamide]
≥ 1000 nM: all assays above

CCCc1ccnc(NC(=O)c2ccc(-c3nc([C@H](C)NC(=O)/C=C/CN(C)C)n4ccnc(C)c34)cc2)c1 [Example 28, (S,E)-4-(3-(1-(4-(dimethylamino)but-2-enamido)ethyl)-8-methylimidazo[1,5-a]pyrazin-1-yl)-N-(4-propylpyridin-2-yl)benzamide]
≥ 1000 nM: all assays above

CC#CC(=O)N1CCCC[C@H]1c1nc(-c2ccc(C(=O)Nc3cc(C(F)(F)F)ccn3)cc2)c2c(C)nccn12 [Example 29, (S)-4-(3-(1-but-2-ynoylpiperidin-2-yl)-8-methylimidazo[1,5-a]pyrazin-1-yl)-N-(4-(trifluoromethyl)pyridin-2-yl)benzamide]
≥ 1000 nM: all assays above

CCCc1ccnc(NC(=O)c2ccc(-c3nc([C@@H]4CCCCN4C(=O)/C=C/CN4CCCC4)n4ccnc(C)c34)cc2)c1 [Example 35, (S,E)-4-(8-methyl-3-(1-(4-(pyrrolidin-1-yl)but-2-enoyl)piperidin-2-yl)imidazo[1,5-a]pyrazin-1-yl)-N-(4-propylpyridin-2-yl)benzamide]
≥ 1000 nM: all assays above

CCCc1ccnc(NC(=O)c2ccc(-c3nc([C@H](C)NC(=O)/C=C/COC)n4ccnc(C)c34)cc2)c1 [Example 36, (S,E)-4-(3-(1-(4-methoxybut-2-enamido)ethyl)-8-methylimidazo[1,5-a]pyrazin-1-yl)-N-(4-propylpyridin-2-yl)benzamide]
≥ 1000 nM: all assays above

Cc1nccn2c([C@@H]3CCCCN3C(=O)/C=C/CN(C)C)nc(-c3ccc(C(=O)Nc4cc(C(F)(F)F)ccn4)cc3)c12 [Example 37, (S,E)-4-(3-(1-(4-(dimethylamino)but-2-enoyl)piperidin-2-yl)-8-methylimidazo[1,5-a]pyrazin-1-yl)-N-(4-(trifluoromethyl)pyridin-2-yl)benzamide]
≥ 1000 nM: all assays above

CC#CC(=O)N[C@@H](C)c1nc(-c2ccc(C(=O)Nc3cc(CCC)ccn3)cc2)c2c(C)nccn12 [Example 38, (S)-4-(3-(1-but-2-ynamidoethyl)-8-methylimidazo[1,5-a]pyrazin-1-yl)-N-(4-propylpyridin-2-yl)benzamide]
≥ 1000 nM: all assays above
